Source: paper PMC12067145 (ACS Medicinal Chemistry Letters, 2025)

What was measured:
[1] = Plasma protein binding (rat); type: in vitro ADME; conditions: pH 7.4, read-out: PPB rat
Protocol: 0.3% DMSO - ΔRatio of 1 µM control compound)x100
In vitro Plasma protein binding and Brain homogenate binding: Determination of fraction unbound (f u) in plasma was conducted in vitro via equilibrium dialysis using HTDialysis (HTD) membrane plates. The top half of the plate was filled with 100 uL of Dubelco’s Phosphate Buffered Saline, pH 7.4 (DPBS). Compounds were diluted into plasma from each species (5 µM final concentration), which was aliquoted in triplicate to the ‘bottom half’ of the prepared HTD plate wells. The HTD plate was sealed and incubated for 6 hours at 37 °C. Following incubation, each well (both top and bottom halves) were transferred (20 µL) to the corresponding wells of a 96-shallow-well (V-bottom) plate. The daughter plates were then matrix-matched (DPBS side wells received equal volume of plasma, and plasma side wells received equal volume of DPBS), and extraction solution (120 µL; acetonitrile containing 50 nM carbamazepine as IS) was added to all wells of both daughter plates to precipitate protein and extract test article. The plates were then sealed and centrifuged (3500 rcf) for 10 minutes at ambient temperature. […]
The unbound fraction (f u) was calculated following the equation below, and mean values for each species were calculated from 3 replicates. […] Fraction unbound for both plasma and brain samples was determined using Equation 4.

[2] = tested on: Glutamate, Kainate; test: Eurofins lead profiling screen (radioligand binding); set-up: species or system Rat
[3] = biological target: Calcium Channel L-Type, Dihydropyridine (Rattus norvegicus, UniProt P22002); test: as above
[4] = biological target: Serotonin (5-HT3) (Homo sapiens, UniProt P46098); test: as above
[5] = biological target: Calcium Channel L-Type, Benzothiazepine (Rattus norvegicus, UniProt P22002); test: as above
[6] = tested on: Nicotinic Acetylcholine; test: as above; set-up: species or system Human
[7] = biological target: Bradykinin B1 (Homo sapiens, UniProt P46663); test: as above
[8] = biological target: Adrenergic β2 (Homo sapiens, UniProt P07550); test: as above
[9] = biological target: Androgen (Testosterone) (Homo sapiens, UniProt P10275); test: as above
[10] = biological target: Transporter, GABA (Rattus norvegicus, UniProt P23978); test: as above
[11] = biological target: Dopamine D4.2 (Homo sapiens, UniProt P21917, DEL265-296); test: as above
Chain of Dopamine D4.2 (P21917 with tags, fused parts or gaps DEL265-296): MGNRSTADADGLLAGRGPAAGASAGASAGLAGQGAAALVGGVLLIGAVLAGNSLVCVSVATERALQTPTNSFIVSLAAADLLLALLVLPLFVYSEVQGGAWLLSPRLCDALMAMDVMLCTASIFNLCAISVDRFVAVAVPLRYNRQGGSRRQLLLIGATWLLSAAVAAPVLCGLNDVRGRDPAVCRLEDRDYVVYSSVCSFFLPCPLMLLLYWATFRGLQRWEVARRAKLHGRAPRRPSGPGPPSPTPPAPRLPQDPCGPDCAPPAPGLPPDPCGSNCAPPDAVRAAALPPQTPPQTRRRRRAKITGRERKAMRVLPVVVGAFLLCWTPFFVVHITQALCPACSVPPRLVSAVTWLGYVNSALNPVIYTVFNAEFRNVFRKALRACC

Chain of Adrenergic β2 (P07550 whole entry): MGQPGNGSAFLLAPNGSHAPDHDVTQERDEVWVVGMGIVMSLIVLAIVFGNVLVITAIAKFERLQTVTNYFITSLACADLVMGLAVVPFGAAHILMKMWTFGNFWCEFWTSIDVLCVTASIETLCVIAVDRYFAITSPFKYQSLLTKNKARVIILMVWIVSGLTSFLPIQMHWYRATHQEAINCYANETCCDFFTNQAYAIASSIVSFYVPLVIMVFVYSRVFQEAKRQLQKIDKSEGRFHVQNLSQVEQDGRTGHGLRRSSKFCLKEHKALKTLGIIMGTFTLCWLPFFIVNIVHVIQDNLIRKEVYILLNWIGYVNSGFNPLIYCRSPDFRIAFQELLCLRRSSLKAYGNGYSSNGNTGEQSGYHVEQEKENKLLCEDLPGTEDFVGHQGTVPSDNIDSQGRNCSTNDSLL
Chain of Calcium Channel L-Type, Dihydropyridine (P22002 whole entry): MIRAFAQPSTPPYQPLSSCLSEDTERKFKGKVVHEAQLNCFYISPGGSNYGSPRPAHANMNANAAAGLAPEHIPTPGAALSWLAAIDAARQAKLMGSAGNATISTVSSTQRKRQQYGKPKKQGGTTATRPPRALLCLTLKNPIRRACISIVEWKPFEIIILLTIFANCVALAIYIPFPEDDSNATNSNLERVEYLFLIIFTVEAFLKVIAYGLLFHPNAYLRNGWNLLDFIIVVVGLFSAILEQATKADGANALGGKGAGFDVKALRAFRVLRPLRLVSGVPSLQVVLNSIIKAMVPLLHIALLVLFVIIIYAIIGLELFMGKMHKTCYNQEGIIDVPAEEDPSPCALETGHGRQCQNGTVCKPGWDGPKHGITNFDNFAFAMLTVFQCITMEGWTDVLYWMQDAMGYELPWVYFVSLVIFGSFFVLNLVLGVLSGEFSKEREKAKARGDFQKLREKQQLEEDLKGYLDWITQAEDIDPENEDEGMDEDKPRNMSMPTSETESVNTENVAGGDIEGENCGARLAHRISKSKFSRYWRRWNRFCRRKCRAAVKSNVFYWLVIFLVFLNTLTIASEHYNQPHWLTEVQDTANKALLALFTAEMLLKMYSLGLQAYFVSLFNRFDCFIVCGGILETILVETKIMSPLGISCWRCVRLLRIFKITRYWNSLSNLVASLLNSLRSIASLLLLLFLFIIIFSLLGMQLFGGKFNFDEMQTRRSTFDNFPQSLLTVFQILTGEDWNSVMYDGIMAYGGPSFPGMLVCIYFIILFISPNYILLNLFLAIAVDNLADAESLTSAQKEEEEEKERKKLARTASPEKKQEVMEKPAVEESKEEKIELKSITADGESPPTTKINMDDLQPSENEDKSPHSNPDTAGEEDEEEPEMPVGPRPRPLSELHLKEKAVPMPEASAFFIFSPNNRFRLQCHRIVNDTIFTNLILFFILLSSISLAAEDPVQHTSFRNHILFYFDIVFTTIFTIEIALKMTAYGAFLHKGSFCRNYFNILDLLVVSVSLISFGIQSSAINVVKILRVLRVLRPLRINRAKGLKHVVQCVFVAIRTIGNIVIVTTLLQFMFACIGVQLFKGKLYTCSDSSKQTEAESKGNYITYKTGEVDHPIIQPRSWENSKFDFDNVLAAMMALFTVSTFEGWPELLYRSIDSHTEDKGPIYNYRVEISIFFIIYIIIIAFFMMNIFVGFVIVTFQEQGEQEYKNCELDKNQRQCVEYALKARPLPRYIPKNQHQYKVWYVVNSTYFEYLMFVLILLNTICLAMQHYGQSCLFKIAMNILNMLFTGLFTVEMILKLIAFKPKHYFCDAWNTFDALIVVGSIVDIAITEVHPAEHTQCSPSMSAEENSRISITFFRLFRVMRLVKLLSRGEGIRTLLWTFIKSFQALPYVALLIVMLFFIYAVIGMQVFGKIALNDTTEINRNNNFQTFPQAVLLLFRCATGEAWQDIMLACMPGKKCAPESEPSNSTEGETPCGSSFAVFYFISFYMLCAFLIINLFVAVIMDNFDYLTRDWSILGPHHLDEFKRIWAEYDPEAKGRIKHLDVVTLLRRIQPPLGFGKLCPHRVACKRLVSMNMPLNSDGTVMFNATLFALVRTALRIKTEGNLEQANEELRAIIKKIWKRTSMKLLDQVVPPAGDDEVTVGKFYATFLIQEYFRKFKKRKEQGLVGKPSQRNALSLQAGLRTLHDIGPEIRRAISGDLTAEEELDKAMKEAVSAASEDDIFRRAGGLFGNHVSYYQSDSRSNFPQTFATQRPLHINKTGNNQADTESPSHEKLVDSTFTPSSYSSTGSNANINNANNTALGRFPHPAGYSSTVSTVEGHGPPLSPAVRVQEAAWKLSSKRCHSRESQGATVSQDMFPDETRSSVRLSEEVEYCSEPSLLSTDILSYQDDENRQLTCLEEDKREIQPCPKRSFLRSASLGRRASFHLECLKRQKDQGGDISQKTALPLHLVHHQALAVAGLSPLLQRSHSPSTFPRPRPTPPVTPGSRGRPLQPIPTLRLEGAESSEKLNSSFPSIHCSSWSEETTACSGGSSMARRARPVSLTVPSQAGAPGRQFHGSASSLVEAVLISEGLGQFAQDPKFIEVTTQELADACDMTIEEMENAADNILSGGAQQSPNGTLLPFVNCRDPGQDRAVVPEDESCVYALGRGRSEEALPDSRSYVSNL
Chain of Calcium Channel L-Type, Benzothiazepine (P22002 whole entry): as above
Chain of Bradykinin B1 (P46663 whole entry): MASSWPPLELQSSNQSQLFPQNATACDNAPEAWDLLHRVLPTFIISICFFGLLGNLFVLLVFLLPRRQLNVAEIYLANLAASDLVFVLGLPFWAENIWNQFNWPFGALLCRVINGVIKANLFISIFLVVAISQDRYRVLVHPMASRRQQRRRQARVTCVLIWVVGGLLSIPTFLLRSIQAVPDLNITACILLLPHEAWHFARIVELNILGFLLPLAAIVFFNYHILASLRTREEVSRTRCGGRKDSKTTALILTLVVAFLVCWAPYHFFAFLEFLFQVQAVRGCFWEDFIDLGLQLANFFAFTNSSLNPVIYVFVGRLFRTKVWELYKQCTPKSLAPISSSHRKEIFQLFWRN
Chain of Serotonin (5-HT3) (P46098 24-478): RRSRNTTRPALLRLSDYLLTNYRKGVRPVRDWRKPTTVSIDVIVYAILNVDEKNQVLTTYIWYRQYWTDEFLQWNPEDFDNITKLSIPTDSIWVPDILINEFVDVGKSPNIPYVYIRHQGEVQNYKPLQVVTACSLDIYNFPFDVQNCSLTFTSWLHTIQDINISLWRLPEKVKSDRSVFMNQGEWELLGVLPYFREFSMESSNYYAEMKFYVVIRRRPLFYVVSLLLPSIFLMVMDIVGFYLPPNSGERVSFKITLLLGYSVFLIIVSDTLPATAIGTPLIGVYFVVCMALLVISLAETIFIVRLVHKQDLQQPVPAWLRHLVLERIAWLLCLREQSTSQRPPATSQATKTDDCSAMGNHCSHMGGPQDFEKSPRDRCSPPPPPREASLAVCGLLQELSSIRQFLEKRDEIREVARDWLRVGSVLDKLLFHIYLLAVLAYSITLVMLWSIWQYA

Row | Compound | fraction unbound at 6 h, 5 µM [1] | % Inhibition at 10 µM [2] | inhibition at 10 µM [3] | inhibition at 10 µM [4] | inhibition at 10 µM [5] | % Inhibition at 10 µM [6] | inhibition at 10 µM [7] | inhibition at 10 µM [8] | inhibition at 10 µM [9] | inhibition at 10 µM [10] | inhibition at 10 µM [11]
1 | Cc1cc(C#Cc2ccc(F)cc2)cnc1NC(=O)c1cc(NC(=O)OC(C)(C)C)ccc1Cl [Compound 14c] | 0.001 | – | – | – | – | – | – | – | – | – | –
2 | O=C(NCc1ccc(OC(F)(F)F)cc1F)c1ccc2ncnn2c1 [ONO-2920632] | – | 3% | 76% | -4% | 56% | -10% | 27% | 4% | 7% | 19% | 5%
